Test results: article PMC11193111 (2024)

Test system: THF-containing double-stranded 17-mer oligodeoxynucleotide (DNA, mismatch bulge abasic, tetrahydrofuran (THF, abasic site analogue) at 6 of strand 1) TCACCNTCGTACGACTC/GAGTCGTACGACGGTGA
Test: thiazole orange displacement, fluorescence
Details: 100 mM KCl, 20 mM Tris-HCl pH 7.4, 0.01% Tween-20, room temperature, 250 nM thiazole orange displaced, 50 nM DNA

Structure (SMILES) | apparent DNA binding constant
NCCNc1ccc(NCCN)c2c1C(=O)c1ccncc1C2=O | 1.25 ± 0.32 µM
O=C1c2c(O)ccc(O)c2C(=O)c2c(NCCNCCO)ccc(NCCNCCO)c21 | 0.083 ± 0.003 µM
